Measured values published in PubChem BioAssay AID2060903 (Molecular Pharmacology Branch, DTP, NCI, 2025).
“And” between values parts separate entries of the source, which are not always exact repeats. Equal values may be shown once.

System: 377384-186-R-J1-PDC complex spheroid viability
Assay: Anticancer human tumor 377384-186-R-J1-PDC patient-derived pancreatic carcinoma cell line growth inhibition [RAS]
Conditions: for viability, T/C: stronger effect = lower value
Source text: RAS pathway inhibitors in Combinations in Complex Spheroids
A high-throughput screen of multi-cell type tumor spheroids was designed to identify active combinations of RAS pathway inhibitors and targeted small molecules. Complex spheroids include a stromal component modeled by human endothelial cells (HUVEC) and fibroblasts modeled by human mesenchymal stem cells (MSCs). The concentration ranges selected for each drug and investigational agent were based upon clinically achievable concentrations if the clinical Cmax of the agent was known.
Compounds. The drugs and investigational agents: abemaciclib (NSC768073), cobimetinib (NSC768068), divarasib (GDC6063, NSC841802), docetaxel (NSC628503), GDC-1971 (RLY-1971, NSC841576), gemcitabine (NSC613327), inavolisib (NSC800729), ipatasertib (NSC767898), KB-0742 (NSC834161), MRTX-1133 (NSC836407), osimertinib (NSC779217), RMC-4630 (NSC839698), RMC-6236 (NSC851965), RMC-6291 (NSC852671), Ro-3306 (NSC812927), sapanisertib (NSC764658), SN-38 (NSC673596), staurosporine (NSC755774), SY5609 (NSC837396), and tovorafenib (DAY101, NSC766906), were obtained from the National Cancer Institute (NCI) Developmental Therapeutics Program Chemical Repository. The FDA-approved anticancer drug set is available from the NCI Developmental Therapeutics Program. […] The stock solutions were prepared in dimethyl sulfoxide (DMSO, Sigma-Aldrich, St. Louis, MO, cat. D2650) at 800-fold the tested concentration and stored at -70 degrees C prior to their use. All drugs and investigational agents were tested over a range starting from a high concentration at or near the clinical Cmax and decreasing in half-log increments. If the clinical Cmax for an agent had not been determined, the highest concentration tested was 10 microM.
Cell Culture. All cells were maintained in an incubator at 37 degrees C and 5% CO2 with 95% humidity. The PDC lines were cultured according to standard operating procedures established by the NCI PDMR. All PDCs were thawed and cultured in Matrigel-coated flasks prepared with a working solution of 1X Ham's F-12 nutrient mix, without supplementation (Invitrogen, Waltham, MA, cat. 11765054), 100 U/mL penicillin-streptomycin (Invitrogen, cat. 15140122), and 2.5% Matrigel (Corning Inc., Corning, NY, cat. 354248) for the first three passages. The 362531-283-R-J2-PDC and 782815-120-R-J1-PDC lines were cultured in 6C/Colon 1B media, which includes advanced DMEM/F-12 (Thermo Fisher Scientific, cat. 12634028), 10 mM HEPES (Thermo Fisher Scientific, cat. 15630080), 1X GlutaMAX supplement (Thermo Fisher Scientific, cat. 35050061), 0.1 mg/mL primocin (InvivoGen, San Diego, CA, cat. ant-pm-2), 10% defined fetal bovine serum, heat inactivated (HyClone Laboratories Inc., Logan, UT, cat. SH30070.03HI), 50% L-WRN conditioned media (ATCC, cat. CRL-3276), 1.25 mM N-Acetyl-L-cysteine (Sigma-Aldrich, cat. A9165), 10 mM nicotinamide (Sigma-Aldrich, cat. N0636), 1X B-27 supplement (Thermo Fisher Scientific, cat. 17504044), 1X N-2 supplement (Thermo Fisher Scientific, cat. 17502048), 50 ng/mL human EGF (Thermo Fisher Scientific, cat. PHG0311), and 10 microM Y-27632 dihydrochloride (Tocris Bioscience, cat. 1254). The K12877-001-R-J1-PDC line was cultured in 6I media, which includes all 6C/Colon 1B media plus 10 ng/mL human FGF-10 (PeproTech, cat. 100-26), 1 ng/mL human FGF-2 (PeproTech, cat. 100-18B), 1 µM prostaglandin E2 (Tocris Bioscience, cat. 2296), […] hydrocortisone (Sigma-Aldrich, cat. H4001), and […] bovine insulin (Sigma-Aldrich, cat. I6634). The K86415-001-R-J1-PDC line was cultured in 6D media, which includes all 6C/Colon 1B media components minus the L-WRN conditioned media. The 485176-168-R4-J1-PDC was cultured in PANC media, which includes all 6C/Colon 1B media plus 100 ng/mL human FGF-10 (PeproTech, cat. 100-26), 500 nM SB-431542 (Selleckchem, cat. S1067), and 10 nM gastrin (Tocris Bioscience, cat. 3006). […]

[1] = curve of first compound, second compound 0.0316 µM
[2] = curve of first compound, second compound 0.1 µM
[3] = curve of first compound, second compound 0.316 µM
[4] = curve of first compound, second compound 1 µM
[5] = curve of first compound, second compound 3.16 µM
[6] = curve of first compound, second compound 10 µM
[7] = second compound 0.0316 µM, first compound 0.00316 µM
[8] = second compound 0.0316 µM, first compound 0.01 µM
[9] = second compound 0.0316 µM, first compound 0.0316 µM
[10] = second compound 0.0316 µM, first compound 0.1 µM
[11] = second compound 0.0316 µM, first compound 0.316 µM
[12] = second compound 0.0316 µM, first compound 1 µM
[13] = second compound 0.1 µM, first compound 0.00316 µM
[14] = second compound 0.1 µM, first compound 0.01 µM
[15] = second compound 0.1 µM, first compound 0.0316 µM
[16] = second compound 0.1 µM, first compound 0.1 µM
[17] = second compound 0.1 µM, first compound 0.316 µM
[18] = second compound 0.1 µM, first compound 1 µM
[19] = second compound 0.316 µM, first compound 0.00316 µM
[20] = second compound 0.316 µM, first compound 0.01 µM
[21] = second compound 0.316 µM, first compound 0.0316 µM
[22] = second compound 0.316 µM, first compound 0.1 µM
[23] = second compound 0.316 µM, first compound 0.316 µM
[24] = second compound 0.316 µM, first compound 1 µM
[25] = second compound 1 µM, first compound 0.00316 µM
[26] = second compound 1 µM, first compound 0.01 µM
[27] = second compound 1 µM, first compound 0.0316 µM
[28] = second compound 1 µM, first compound 0.1 µM
[29] = second compound 1 µM, first compound 0.316 µM
[30] = second compound 1 µM, first compound 1 µM
[31] = second compound 3.16 µM, first compound 0.00316 µM
[32] = second compound 3.16 µM, first compound 0.01 µM
[33] = second compound 3.16 µM, first compound 0.0316 µM
[34] = second compound 3.16 µM, first compound 0.1 µM
[35] = second compound 3.16 µM, first compound 0.316 µM
[36] = second compound 3.16 µM, first compound 1 µM
[37] = second compound 10 µM, first compound 0.00316 µM
[38] = second compound 10 µM, first compound 0.01 µM
[39] = second compound 10 µM, first compound 0.0316 µM
[40] = second compound 10 µM, first compound 0.1 µM
[41] = second compound 10 µM, first compound 0.316 µM
[42] = second compound 10 µM, first compound 1 µM
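Further: spheroids exposed to compounds for seven days before readout.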

For `CC(=O)OC12COC1CC(O)C1(C)C(=O)C(O)C3=C(C)C(OC(=O)C(O)C(NC(=O)OC(C)(C)C)c4ccccc4)CC(O)(C(OC(=O)c4ccccc4)C21)C3(C)C` (stereo not drawn), the viability, T/C (compound 0.0316 µM) was 9.48% [middle of 4 runs], the viability, T/C (compound 0.1 µM) was 12% and 10.2% (2×) and 9.32% and the viability, T/C (compound 0.316 µM) was 11.3% [middle of 4 runs]. The viability, T/C (compound 1 µM) was 12.8% [middle of 4 runs], the viability, T/C (compound 3.16 µM) was 14.2% [middle of 4 runs] and the viability, T/C (compound 10 µM) was 13.2% [middle of 4 runs]. The IC50 (curve of compound) was under 31.6 nM.
For `CC(C)NCC(C(=O)N1CCN(c2ncnc3c2C(C)CC3O)CC1)c1ccc(Cl)cc1` (stereo not drawn), the viability, T/C (compound 0.1 µM) was 92% [middle of 4 runs], the viability, T/C (compound 0.316 µM) was 75.2% [middle of 4 runs] and the viability, T/C (compound 1 µM) was 63.2% [middle of 4 runs]. The viability, T/C (compound 3.16 µM) was 51.9% [middle of 4 runs], the viability, T/C (compound 10 µM) was 36.2% [middle of 4 runs] and the IC50 (curve of compound) was 2.58 µM [middle of 4 runs].
`NC1c2ccccc2OC12CCN(c1cnc3c(N4CCCc5ncccc54)n[nH]c3n1)CC2` (stereo not drawn) was tested, and the viability, T/C (compound 0.1 µM) was 83.4% [middle of 4 runs], the viability, T/C (compound 0.316 µM) was 80.6% [middle of 4 runs] and the viability, T/C (compound 1 µM) was 73% [middle of 4 runs]. The viability, T/C (compound 3.16 µM) was 76.8% [middle of 4 runs], the viability, T/C (compound 10 µM) was 70% [middle of 4 runs] and the IC50 (curve of compound) was over 10000 nM.
`C=CC(=O)Nc1cc(Nc2nccc(-c3cn(C)c4ccccc34)n2)c(OC)cc1N(C)CCN(C)C` + C#Cc1c(F)ccc2cc(O)cc(-c3ncc4c(N5CC6CCC(C5)N6)nc(OCC56CCCN5CC(F)C6)nc4c3F)c12 was tested, and the IC50 [1] was under 3.16 nM, the IC50 [2] was under 3.16 nM and the IC50 [3] was under 3.16 nM. For the same molecule, the IC50 [4] was under 3.16 nM, the IC50 [5] was under 3.16 nM and the IC50 [6] was under 3.16 nM. For the same molecule, the viability, T/C [7] was 23.5%, the viability, T/C [8] was 20.6% and the viability, T/C [9] was 15.2%. The viability, T/C [10] was 11.2%, the viability, T/C [11] was 3.98% and the viability, T/C [12] was 2.32%. For the same molecule, the viability, T/C [13] was 11.5%, the viability, T/C [14] was 8.96% and the viability, T/C [15] was 5.18%. It also gave a viability, T/C [16] of 3.75%, a viability, T/C [17] of 2.22% and a viability, T/C [18] of 2.24%. It also gave a viability, T/C [19] of 8.47%, a viability, T/C [20] of 5.04% and a viability, T/C [21] of 3.96%. It also gave a viability, T/C [22] of 2.43%, a viability, T/C [23] of 1.28% and a viability, T/C [24] of 1.33%. The viability, T/C [25] was 3.67%, the viability, T/C [26] was 2.76% and the viability, T/C [27] was 2.37%. It also gave a viability, T/C [28] of 1.47%, a viability, T/C [29] of 1.51% and a viability, T/C [30] of 1.43%. For the same molecule, the viability, T/C [31] was 1.79%, the viability, T/C [32] was 1.63% and the viability, T/C [33] was 1.82%. The viability, T/C [34] was 1.41%, the viability, T/C [35] was 1.37% and the viability, T/C [36] was 1.25%. For the same molecule, the viability, T/C [37] was 1.63%, the viability, T/C [38] was 1.14% and the viability, T/C [39] was 1.21%. The viability, T/C [40] was 0.66%, the viability, T/C [41] was 1.89% and the viability, T/C [42] was 0.82%.
Work on `O=C(c1ccc(F)c(F)c1Nc1ccc(I)cc1F)N1CC(O)([C@@H]2CCCCN2)C1` + C#Cc1c(F)ccc2cc(O)cc(-c3ncc4c(N5CC6CCC(C5)N6)nc(OCC56CCCN5CC(F)C6)nc4c3F)c12 yielded an IC50 [1] of under 3.16 nM, an IC50 [2] of under 3.16 nM and an IC50 [3] of under 3.16 nM. It also gave an IC50 [4] of under 3.16 nM, an IC50 [5] of under 3.16 nM and an IC50 [6] of under 3.16 nM. It also gave a viability, T/C [7] of 19.3%, a viability, T/C [8] of 12% and a viability, T/C [9] of 5.6%. It also gave a viability, T/C [10] of 2.35%, a viability, T/C [11] of 0.7% and a viability, T/C [12] of 0.29%. For the same molecule, the viability, T/C [13] was 6.37%, the viability, T/C [14] was 4.57% and the viability, T/C [15] was 2.3%. It also gave a viability, T/C [16] of 1.43%, a viability, T/C [17] of 0.58% and a viability, T/C [18] of 0.35%. For the same molecule, the viability, T/C [19] was 4.21%, the viability, T/C [20] was 2.12% and the viability, T/C [21] was 1.39%. It also gave a viability, T/C [22] of 0.91%, a viability, T/C [23] of 0.54% and a viability, T/C [24] of 0.22%. The viability, T/C [25] was 1.85%, the viability, T/C [26] was 1.57% and the viability, T/C [27] was 1.12%. For the same molecule, the viability, T/C [28] was 1.04%, the viability, T/C [29] was 0.42% and the viability, T/C [30] was 0.15%. For the same molecule, the viability, T/C [31] was 1.79%, the viability, T/C [32] was 1.3% and the viability, T/C [33] was 1.31%. The viability, T/C [34] was 0.67%, the viability, T/C [35] was 0.2% and the viability, T/C [36] was 0.21%. For the same molecule, the viability, T/C [37] was 1.29%, the viability, T/C [38] was 0.68% and the viability, T/C [39] was 0.68%. For the same molecule, the viability, T/C [40] was 0.65%, the viability, T/C [41] was 0.38% and the viability, T/C [42] was 0.17%.
